Measurements taken from paper PMC11822212, “High-throughput screening identifies Aurora kinase B as a critical therapeutic target for Merkel cell carcinoma” (Nature Communications, 2025).

What was measured:
Assay type in all cases: cell-based, human
MCC13 cells (VN-MCC) = test: qHTS cell viability (CellTiter-Glo, 72 h; primary and follow-up small molecule screen); details: for Percent viability: MCC13, 72h
MKL-1 cells (VP-MCC) = test: as above; details: for Percent viability: MKL1, 72h
WAGA cells (VP-MCC) = test: as above; details: WAGA; for Percent viability: 72h
UISO cells (VN-MCC) = test: as above; details: UISO; for Percent viability: 72h
[1] = tested on: VP-MCC cell lines (WAGA, MKL-1, MKL-2); test: qHTS cell viability, VP-MCC cell lines as a group (mean AUC, VP.MCC.avg); details: re-tested in triplicate, follow-up screen
MCC26 cells (VN-MCC) = test: qHTS cell viability (CellTiter-Glo, 72 h; primary and follow-up small molecule screen); details: for Percent viability: MCC26, 72h
MKL-2 cells (VP-MCC) = test: as above; details: for Percent viability: MKL2, 72h
GDSC cancer cell lines = test: Genomics of Drug Sensitivity in Cancer (GDSC) IC50 comparison across cancer cell lines; details: own IC50 estimates compared with public IC50 data
Protocol: Palo Alto, CA, USA) for these compounds from our small molecule screen. Following the graphing format in the GDSC database, compounds were ranked by IC50 and plotted in Rstudio using ggplot2, ggrepel, and scales packages. page 9: Supplementary Fig. S6. Au rora kinase inhibi tors mor e potentl y reduc e viability in VP-MCC than VN-MCC. […] Cell viability was measured by CellTiter- Glo at 72 h and by manual cell counts at 144 h. […] Consistent across n = 3 replicates . B) IC50 values (molar) for each aurora kinase inhibitor in each MCC cell line. […] IC50 values from GDSC (Gray-scale and green) were combined with IC50 values determined in our study (purple) and then ranked. n = number of experimental replicates for each cell line.

In the case of `Cc1cc(Nc2cc(N3CCN(C)CC3)nc(Sc3ccc(NC(=O)C4CC4)cc3)n2)[nH]n1` [Tozasertib, reference compound], the Percent viability (MCC13 cells (VN-MCC); Log (M) -5.33646) is reported as 14.5%, the Percent viability (MCC13 cells (VN-MCC); Log (M) -5.81358) is reported as 69.4% and the Percent viability (MCC13 cells (VN-MCC); Log (M) -6.2907) is reported as 72.9%. The Percent viability (MCC13 cells (VN-MCC); Log (M) -6.76782) was 89.8%, the Percent viability (MCC13 cells (VN-MCC); Log (M) -7.24494) was 103.0% and the Percent viability (MCC13 cells (VN-MCC); Log (M) -7.72207) was 85.9%. It also gave a Percent viability (MCC13 cells (VN-MCC); Log (M) -8.19919) of 106.1%, a Percent viability (MCC13 cells (VN-MCC); Log (M) -8.67631) of 96.2% and a Percent viability (MCC13 cells (VN-MCC); Log (M) -9.15343) of 118.3%. The Percent viability (MCC13 cells (VN-MCC); Log (M) -9.63055) was 100.0%, the Percent viability (MCC13 cells (VN-MCC); Log (M) -10.1077) was 108.5% and the “Area under the dose-response curve (AUC) MCC13 Replicate 1” value (MCC13 cells (VN-MCC); follow-up screen, MCC13, replicate 1) was 420.2. The “Area under the dose-response curve (AUC) MCC13 Replicate 2” value (MCC13 cells (VN-MCC); follow-up screen, MCC13, replicate 2) was 430.9, the “Area under the dose-response curve (AUC) MCC13 Replicate 3” value (MCC13 cells (VN-MCC); follow-up screen, MCC13, replicate 3) was 459.4 and the Percent viability (MKL-1 cells (VP-MCC); Log (M) -5.33646) was 35.7%. For the same compound, the Percent viability (MKL-1 cells (VP-MCC); Log (M) -5.81358) was 29.2%, the Percent viability (MKL-1 cells (VP-MCC); Log (M) -6.2907) was 29.7% and the Percent viability (MKL-1 cells (VP-MCC); Log (M) -6.76782) was 36.8%. The Percent viability (MKL-1 cells (VP-MCC); Log (M) -7.24494) was 39.2%, the Percent viability (MKL-1 cells (VP-MCC); Log (M) -7.72207) was 37.5% and the Percent viability (MKL-1 cells (VP-MCC); Log (M) -8.19919) was 101.6%. The Percent viability (MKL-1 cells (VP-MCC); Log (M) -8.67631) was 103.8%, the Percent viability (MKL-1 cells (VP-MCC); Log (M) -9.15343) was 98.2% and the Percent viability (MKL-1 cells (VP-MCC); Log (M) -9.63055) was 98.1%. For the same compound, the Percent viability (MKL-1 cells (VP-MCC); Log (M) -10.1077) was 100.0%, the “Area under the dose-response curve (AUC) MKL-1 Replicate 1” value (MKL-1 cells (VP-MCC); follow-up screen, MKL-1, replicate 1) was 300.3 and the “Area under the dose-response curve (AUC) MKL-1 Replicate 2” value (MKL-1 cells (VP-MCC); follow-up screen, MKL-1, replicate 2) was 306.3. The “Area under the dose-response curve (AUC) MKL-1 Replicate 3” value (MKL-1 cells (VP-MCC); follow-up screen, MKL-1, replicate 3) was 312.1, the Percent viability (WAGA cells (VP-MCC); Log (M) -5.33646) was 23.8% and the Percent viability (WAGA cells (VP-MCC); Log (M) -5.81358) was 31.7%. For the same compound, the Percent viability (WAGA cells (VP-MCC); Log (M) -6.2907) was 25.7%, the Percent viability (WAGA cells (VP-MCC); Log (M) -6.76782) was 41.2% and the Percent viability (WAGA cells (VP-MCC); Log (M) -7.24494) was 47.8%. It also gave a Percent viability (WAGA cells (VP-MCC); Log (M) -8.19919) of 107.2%, a Percent viability (WAGA cells (VP-MCC); Log (M) -8.67631) of 105.4% and a Percent viability (WAGA cells (VP-MCC); Log (M) -9.15343) of 101.2%. The Percent viability (WAGA cells (VP-MCC); Log (M) -9.63055) was 100.0%, the Percent viability (WAGA cells (VP-MCC); Log (M) -10.1077) was 100.0% and the “Area under the dose-response curve (AUC) WAGA Replicate 1” value (WAGA cells (VP-MCC); follow-up screen, replicate 1) was 353.1. For the same compound, the “Area under the dose-response curve (AUC) WAGA Replicate 2” value (WAGA cells (VP-MCC); follow-up screen, replicate 2) was 343.3, the “Area under the dose-response curve (AUC) WAGA Replicate 3” value (WAGA cells (VP-MCC); follow-up screen, replicate 3) was 330.6 and the Percent viability (UISO cells (VN-MCC); Log (M) -5.33646) was 29.1%. The Percent viability (UISO cells (VN-MCC); Log (M) -5.81358) was 58.8%, the Percent viability (UISO cells (VN-MCC); Log (M) -6.2907) was 69.6% and the Percent viability (UISO cells (VN-MCC); Log (M) -6.76782) was 70.0%. For the same compound, the Percent viability (UISO cells (VN-MCC); Log (M) -7.24494) was 74.4%, the Percent viability (UISO cells (VN-MCC); Log (M) -7.72207) was 84.6% and the Percent viability (UISO cells (VN-MCC); Log (M) -8.19919) was 94.4%. It also gave a Percent viability (UISO cells (VN-MCC); Log (M) -8.67631) of 100.2%, a Percent viability (UISO cells (VN-MCC); Log (M) -9.15343) of 102.6% and a Percent viability (UISO cells (VN-MCC); Log (M) -9.63055) of 98.1%. For the same compound, the Percent viability (UISO cells (VN-MCC); Log (M) -10.1077) was 97.1%, the “Area under the dose-response curve (AUC) UISO Replicate 1” value (UISO cells (VN-MCC); follow-up screen, replicate 1) was 350.8 and the “Area under the dose-response curve (AUC) UISO Replicate 2” value (UISO cells (VN-MCC); follow-up screen, replicate 2) was 389.2. For the same compound, the “Area under the dose-response curve (AUC) UISO Replicate 3” value (UISO cells (VN-MCC); follow-up screen, replicate 3) was 355.0, the “VP-MCC viability (in words)” value [1] was “consistently and potently reduced VP-MCC viability” and the Percent viability (MCC26 cells (VN-MCC); Log (M) -5.33646) was 26.6%. It also gave a Percent viability (MCC26 cells (VN-MCC); Log (M) -5.81358) of 59.4%, a Percent viability (MCC26 cells (VN-MCC); Log (M) -6.2907) of 79.7% and a Percent viability (MCC26 cells (VN-MCC); Log (M) -6.76782) of 87.3%. The Percent viability (MCC26 cells (VN-MCC); Log (M) -7.24494) was 90.3%, the Percent viability (MCC26 cells (VN-MCC); Log (M) -7.72207) was 87.4% and the Percent viability (MCC26 cells (VN-MCC); Log (M) -8.19919) was 90.8%. It also gave a Percent viability (MCC26 cells (VN-MCC); Log (M) -8.67631) of 96.9%, a Percent viability (MCC26 cells (VN-MCC); Log (M) -9.15343) of 92.6% and a Percent viability (MCC26 cells (VN-MCC); Log (M) -9.63055) of 87.8%. The Percent viability (MCC26 cells (VN-MCC); Log (M) -10.1077) was 88.7%, the “Area under the dose-response curve (AUC) MCC26 Replicate 1” value (MCC26 cells (VN-MCC); follow-up screen, MCC26, replicate 1) was 399.1 and the “Area under the dose-response curve (AUC) MCC26 Replicate 2” value (MCC26 cells (VN-MCC); follow-up screen, MCC26, replicate 2) was 396.0. For the same compound, the “Area under the dose-response curve (AUC) MCC26 Replicate 3” value (MCC26 cells (VN-MCC); follow-up screen, MCC26, replicate 3) was 410.6, the Percent viability (MKL-2 cells (VP-MCC); Log (M) -5.33646) was 29.1% and the Percent viability (MKL-2 cells (VP-MCC); Log (M) -5.81358) was 82.7%. The Percent viability (MKL-2 cells (VP-MCC); Log (M) -6.2907) was 74.7%, the Percent viability (MKL-2 cells (VP-MCC); Log (M) -6.76782) was 62.9% and the Percent viability (MKL-2 cells (VP-MCC); Log (M) -7.24494) was 51.8%. For the same compound, the Percent viability (MKL-2 cells (VP-MCC); Log (M) -7.72207) was 51.5%, the Percent viability (MKL-2 cells (VP-MCC); Log (M) -8.19919) was 79.6% and the Percent viability (MKL-2 cells (VP-MCC); Log (M) -8.67631) was 111.3%. It also gave a Percent viability (MKL-2 cells (VP-MCC); Log (M) -9.15343) of 116.9%, a Percent viability (MKL-2 cells (VP-MCC); Log (M) -9.63055) of 110.0% and a Percent viability (MKL-2 cells (VP-MCC); Log (M) -10.1077) of 101.6%. The “Area under the dose-response curve (AUC) MKL-2 Replicate 1” value (MKL-2 cells (VP-MCC); follow-up screen, MKL-2, replicate 1) was 388.8, the “Area under the dose-response curve (AUC) MKL-2 Replicate 2” value (MKL-2 cells (VP-MCC); follow-up screen, MKL-2, replicate 2) was 384.9 and the “Area under the dose-response curve (AUC) MKL-2 Replicate 3” value (MKL-2 cells (VP-MCC); follow-up screen, MKL-2, replicate 3) was 409.6. The “potency in VP-MCC cell lines versus other human cancer cell lines (GDSC)” value (GDSC cancer cell lines) was “higher in VP-MCC cell lines than in hundreds of other human cancer cell lines”.
